These results are taken from patent publication EP4653444A1, “FUSED TRICYCLIC COMPOUND AS KINASE INHIBITOR” (Hangzhou Innogate Pharma Co., Ltd., priority 2023, dated 2024).

The structures appear in SMILES notation. Read-outs that look alike come from different tables or passages of the source. Some results are limits rather than exact numbers.

In one test the target is T1, AXL (Homo sapiens, UniProt P30530).
T1 sequence (P30530 26-894): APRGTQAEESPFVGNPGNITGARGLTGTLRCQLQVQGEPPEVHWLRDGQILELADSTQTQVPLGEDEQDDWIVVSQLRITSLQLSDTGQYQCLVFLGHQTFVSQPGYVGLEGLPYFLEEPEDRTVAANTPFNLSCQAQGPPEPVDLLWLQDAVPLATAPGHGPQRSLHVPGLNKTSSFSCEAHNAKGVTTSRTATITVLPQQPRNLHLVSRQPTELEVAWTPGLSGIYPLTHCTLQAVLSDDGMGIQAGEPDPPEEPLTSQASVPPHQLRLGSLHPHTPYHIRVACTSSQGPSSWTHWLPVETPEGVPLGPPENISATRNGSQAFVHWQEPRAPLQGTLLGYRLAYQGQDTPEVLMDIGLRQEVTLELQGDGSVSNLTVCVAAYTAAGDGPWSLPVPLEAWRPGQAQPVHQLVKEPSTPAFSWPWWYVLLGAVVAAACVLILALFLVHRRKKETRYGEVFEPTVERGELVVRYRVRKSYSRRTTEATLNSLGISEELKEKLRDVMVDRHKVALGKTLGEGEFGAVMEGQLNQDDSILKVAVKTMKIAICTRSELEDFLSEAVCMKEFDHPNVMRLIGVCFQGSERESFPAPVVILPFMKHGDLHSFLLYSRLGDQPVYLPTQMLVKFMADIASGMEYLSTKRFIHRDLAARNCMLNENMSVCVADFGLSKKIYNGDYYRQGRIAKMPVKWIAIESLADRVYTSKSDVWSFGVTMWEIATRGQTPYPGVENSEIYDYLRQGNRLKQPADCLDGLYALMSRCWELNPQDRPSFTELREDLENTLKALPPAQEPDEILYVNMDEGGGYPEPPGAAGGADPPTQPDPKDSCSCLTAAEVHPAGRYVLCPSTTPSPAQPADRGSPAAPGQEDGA
Kind of test: AXL kinase activity inhibition assay (Mobility shift assay). The class given is biochemical. On the procedure:
Testing compound inhibitory activity against FLT3 and AXL kinases using Mobility shift assay. Compounds were dissolved in 100% DMSO to prepare 10 mM stock solutions. Prepare 1× Kinase Buffer. Test compounds were serially diluted in 5-fold gradients, and 250 nL of 100× final concentration compounds were transferred to destination plate 3573 using an Echo 550 liquid handler. A 2.5× final concentration kinase solution was prepared in 1× Kinase Buffer. Then, 10 µL of the 2.5× kinase solution was added to both compound wells and positive control wells, while 10 µL of 1× Kinase Buffer was added to negative control wells. The plate was centrifuged at 1000 rpm for 30 seconds, mixed by orbital shaking, and incubated at room temperature for 10 minutes. A 5/3× final concentration mixture of ATP and Kinase Substrate 25 was prepared in 1× Kinase Buffer. The reaction was initiated by adding 15 µL of the 5/3× ATP/substrate mixture. […] Conversion rates were measured using a Caliper EZ Reader. %Inhibition = (Conversion%_max - Conversion%_sample)/(Conversion%_max - Conversion%_min) × 100. Where: Conversion%_sample: Conversion rate reading of test samples; Conversion%_min: Mean value of negative control wells (representing conversion rate without enzyme activity); Conversion%_max: Mean value of positive control wells (representing conversion rate without compound inhibition). […]

Another test deals with T2, FLT3 (Homo sapiens, UniProt P36888).
T2 sequence (P36888 27-993): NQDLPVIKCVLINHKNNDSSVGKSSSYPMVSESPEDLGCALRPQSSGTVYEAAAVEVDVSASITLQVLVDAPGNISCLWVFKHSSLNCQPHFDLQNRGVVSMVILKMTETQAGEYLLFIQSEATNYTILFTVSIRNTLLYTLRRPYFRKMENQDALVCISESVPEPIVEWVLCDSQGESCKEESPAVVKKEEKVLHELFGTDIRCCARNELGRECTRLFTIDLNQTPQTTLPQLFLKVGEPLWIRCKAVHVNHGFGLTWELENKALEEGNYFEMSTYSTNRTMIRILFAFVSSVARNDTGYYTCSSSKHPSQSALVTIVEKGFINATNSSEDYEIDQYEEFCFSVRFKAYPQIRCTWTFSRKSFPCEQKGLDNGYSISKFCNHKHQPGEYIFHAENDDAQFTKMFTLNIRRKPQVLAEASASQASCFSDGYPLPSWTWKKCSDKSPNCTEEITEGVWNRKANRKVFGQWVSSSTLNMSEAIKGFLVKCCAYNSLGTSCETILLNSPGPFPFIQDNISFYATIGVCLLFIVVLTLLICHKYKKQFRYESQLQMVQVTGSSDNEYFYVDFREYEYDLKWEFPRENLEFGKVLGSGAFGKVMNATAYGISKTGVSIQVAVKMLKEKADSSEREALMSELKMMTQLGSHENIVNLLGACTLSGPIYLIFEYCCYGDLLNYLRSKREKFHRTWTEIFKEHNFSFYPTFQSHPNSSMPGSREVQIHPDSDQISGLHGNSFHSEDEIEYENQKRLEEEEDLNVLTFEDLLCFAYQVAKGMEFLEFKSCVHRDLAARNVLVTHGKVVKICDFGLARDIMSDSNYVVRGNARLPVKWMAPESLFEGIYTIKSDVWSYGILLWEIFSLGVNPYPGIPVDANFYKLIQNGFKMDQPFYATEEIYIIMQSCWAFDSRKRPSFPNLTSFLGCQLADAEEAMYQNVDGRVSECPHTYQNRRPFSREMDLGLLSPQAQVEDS
Kind of test: FLT3 kinase activity inhibition assay (Mobility shift assay). The class given is biochemical. On the procedure:
Testing compound inhibitory activity against FLT3 and AXL kinases using Mobility shift assay. Compounds were dissolved in 100% DMSO to prepare 10 mM stock solutions. Prepare 1× Kinase Buffer. Test compounds were serially diluted in 5-fold gradients, and 250 nL of 100× final concentration compounds were transferred to destination plate 3573 using an Echo 550 liquid handler. A 2.5× final concentration kinase solution was prepared in 1× Kinase Buffer. Then, 10 µL of the 2.5× kinase solution was added to both compound wells and positive control wells, while 10 µL of 1× Kinase Buffer was added to negative control wells. The plate was centrifuged at 1000 rpm for 30 seconds, mixed by orbital shaking, and incubated at room temperature for 10 minutes. A 5/3× final concentration mixture of ATP and Kinase Substrate 25 was prepared in 1× Kinase Buffer. The reaction was initiated by adding 15 µL of the 5/3× ATP/substrate mixture. The 384-well plate was centrifuged at 1000 rpm for 30 seconds, mixed by shaking, and incubated at room temperature for 120 minutes. The kinase reaction was terminated by adding 30 µL stop solution, followed by centrifugation at 1000 rpm for 30 seconds and mixing. Conversion rates were measured using a Caliper EZ Reader. %Inhibition = (Conversion%_max - Conversion%_sample)/(Conversion%_max - Conversion%_min) × 100. Where: Conversion%_sample: Conversion rate reading of test samples; Conversion%_min: Mean value of negative control wells (representing conversion rate without enzyme activity); Conversion%_max: Mean value of positive control wells (representing conversion rate without compound inhibition). Dose-response curves were plotted with log(concentration) as the X-axis and percentage inhibition as the Y-axis. Curve fitting was performed using GraphPad Prism 5 software with the "log(inhibitor) vs. response - Variable slope" model to derive IC50 values for each compound's enzyme inhibitory activity. The fitting formula was: Y = Bottom + (Top - Bottom)/(1 + 10^((LogIC50 - X) × HillSlope)).

In general, IC50 refers to the concentration needed to halve the response being measured. As to `COc1cc2c(cc1Nc1ncc(Cl)c(Nc3ccccc3S(=O)(=O)C(C)C)n1)OC[C@@H]1CN(C3CCOCC3)CCN21` [Compound C1S], the IC50 at AXL (Table 3, read-out: AXL (IC50)) is less than 30 nM; at FLT3 (Table 3, read-out: FLT3 (IC50)) it was less than 30 nM.

With `COc1cc2c(cc1Nc1ncc(Cl)c(Nc3ccccc3S(=O)(=O)C(C)C)n1)OC[C@@H]1CN(C3CCN(C)CC3)CCN21` [Compound C2S], the IC50 at AXL and at FLT3 was less than 30 nM in each case. `CNC(=O)c1ccccc1Nc1cc(Nc2cc3c(cc2OC)N2CCN(C4CCN(C)CC4)C[C@@H]2CO3)ncc1C(F)(F)F` [Compound D2R]: on FLT3, the 50% inhibitory concentration (IC50) is less than 20 nM. `CNC(=O)c1ccccc1Nc1cc(Nc2cc3c(cc2OC)N2CCN(C4CCN(C)CC4)C[C@H]2CO3)ncc1C(F)(F)F` [Compound D2S]: the IC50 on FLT3 (Table 4, read-out: FLT3 (IC50)) is less than 50 nM. As to `CNC(=O)c1ccccc1Nc1cc(Nc2cc3c(cc2OC)N2CCN(C4CN(C)C4)C[C@H]2CO3)ncc1C(F)(F)F` [Compound D4S], the IC50 at FLT3 (Table 4, read-out: FLT3 (IC50)) was less than 70 nM.
